# Measured values from patent US20260069531A1, “POLYMERIC LEUPROLIDE ACETATE FORMULATIONS” (Tolmar International Limited, priority 2023, published 2026).
# What was measured:
# [1] = LA gelation studies of drug solutions (60° C., inversion test, HPLC content); assay type: physicochemical; settings: e-beam irradiated, 150 rpm, up to 16 days
# Procedure: Drug solutions were prepared as described above and filled into syringes or glass vials. Syringes were untreated, contained various amounts of silicone, or were plasma coated for lubrication. Samples were irradiated by e-beam irradiation at not less than 25 kGy and stored at accelerated conditions of 60° C. with agitation at 150 rpm for up to 16 days. Samples were inspected periodically to determine if the drug solution remained a solution or had formed a solid/gel by an inversion test. Samples that had “gelled” were transferred to 5° C. for subsequent testing.
# The gelation rate for each sample was calculated as Rate=1/(simulated 5° C. age at time of gelation in days). The Arrhenius equation was used to determine the simulated age, assuming standard reaction rate doubling for every 10° C. increase in temperature. […] Data was analyzed using JMP. […] Container type and lubrication were not significant.
# Samples were tested for leuprolide content by HPLC. Leuprolide content was then converted to leuprolide acetate by multiplying by 1.078 (based on molecular mass ratios). A marked difference in leuprolide acetate content between the gelled and non-gelled samples was seen, with the tipping point between solution and solid/gelled samples occurring at about 45% LA.
# [2] = assay type: physicochemical
# Text: To produce the drug/solvent bulk solution comprising the API (LA), the desired amount of the LA was combined with the solvent NMP or DMSO or combination of solvents with or without a co-solvent or other additives, in the indicated amounts (see individual experiments below). The API and solvent were combined in a glass vial or jar. Jars were mixed using the jar mill, Turbula, or shaker at room temperature until homogeneous. LA is soluble in NMP or DMSO and can load higher concentrations (at least 40% w/w). After dissolving the API in the organic solvent, the bulk solution was manually filled into syringes and capped with a tip cap. The syringes used for filling were either 1.2 mL male polypropylene syringes, 1.2 mL male cyclic olefin copolymer syringes or 1 mL male cyclic olefin copolymer syringes. Filled syringes were then packaged in labeled foil pouches with a Syringe A (polymer-solvent solution) and a desiccant pack and the pouches were sealed. After filling the syringes with the formulations, they were terminally sterilized with an external radiation dose of 30 kGy from e-beam processing. After terminal sterilization, the syringes were stored under refrigerated conditions (e.g., 2-8° C.) or accelerated conditions (>25° C. see individual experiments).
structure (smiles),measurement,setting,value
"CCNC(=O)[C@@H]1CCCN1C(=O)[C@H](CCCNC(=N)N)NC(=O)[C@H](CC(C)C)NC(=O)[C@@H](CC(C)C)NC(=O)[C@H](Cc1ccc(O)cc1)NC(=O)[C@H](CO)NC(=O)[C@H](Cc1c[nH]c2ccccc12)NC(=O)[C@H](Cc1c[nH]cn1)NC(=O)[C@@H]1CCC(=O)N1 [Leuprolide Acetate, leuprolide acetate]",tipping point between solution and solid/gelled samples (leuprolide acetate content),[1],about 45 % LA
same,concentration of LA that can be loaded (soluble),[2],at least 40 % w/w
